Assay results from US20210040118A1, “IMMUNOMODULATORS, COMPOSITIONS AND METHODS THEREOF” (BETTA PHARMACEUTICALS CO., LTD, priority 2018, published 2021).

Target: T1, PD-1/PD-L1 (Homo sapiens, UniProt Q9NZQ7)
T1 construct: Recombinant human PD-L1 protein (19-238) with a His-tag at the C-terminus; purchased AcroBiosystems PD1-H5229 (PD-L1); PD1-H5257 (PD-1)
Assay: PD-1/PD-L1 homogenous time-resolved fluorescence (HTRF) binding assay
Conditions: recombinant human PD-L1 (19-238) His-tag / human PD-1 (25-167) Fc tag, class symbols
Description: Resolved Fluorescence (HTRF) Binding Assay
The assays were conducted in a standard black 384-well polystyrene plate with a final volume of 20 μL. Inhibitors were first serially diluted in DMSO and then added to the plate wells before the addition of other reaction components. The final concentration of DMSO in the assay was 1%. The assays were carried out at 25° C. in the PBS buffer (pH 7.4) with 0.05% Tween-20 and 0.1% BSA. Recombinant human PD-L1 protein (19-238) with a His-tag at the C-terminus was purchased from AcroBiosy stems (PD1-H5229). Recombinant human PD-1 protein (25-167) with Fc tag at the C-terminus was also purchased from AcroBiosystems (PD1-H5257). PD-L1 and PD-1 proteins were diluted in the assay buffer and 10 μL was added to the plate well. Plates were centrifuged and proteins were preincubated with inhibitors for 40 min. The incubation was followed by the addition of […] of HTRF detection buffer supplemented with Europium cryptate-labeled anti-human IgG (PerkinElmer-AD0212) specific for Fc and anti-His antibody conjugated to SureLight®-Allophycocyanin (APC, PerkinElmer-AD0059H). After centrifugation, the plate was incubated at 25° C. for 60 min. Before reading on a PHERAstar FS plate reader (665 nm/620 nm ratio). Final concentrations in the assay were […] PD1, 10 nM PD-L1, 1 nM europium anti-human IgG and 20 nM anti-His-Allophycocyanin. IC50 determination was performed by fitting the curve of percent control activity versus the log of the inhibitor concentration using the GraphPad Prism 5.0 software.
Data obtained for the Example compounds using the PD-1/PD-L1 homogenous time-resolved fluorescence (HTRF) binding assay described in Example A is provided in Table 4.

T1 sequence (Q9NZQ7 19-238): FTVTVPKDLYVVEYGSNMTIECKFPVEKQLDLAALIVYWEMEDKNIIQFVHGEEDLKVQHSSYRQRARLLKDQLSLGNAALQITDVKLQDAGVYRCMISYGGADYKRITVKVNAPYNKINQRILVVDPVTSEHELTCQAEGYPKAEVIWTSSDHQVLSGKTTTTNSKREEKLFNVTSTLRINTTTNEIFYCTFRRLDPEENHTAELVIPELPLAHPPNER

Row | Compound | IC50
1 | O=C(Nc1cccc(-c2cccc(NC(=O)c3nc4c(s3)CN(C3COC3)CC4)c2Cl)c1Cl)c1nc2c(s1)CN(C1COC1)CC2 [Example 92, N,N′-(2,2′-dichloro-[1,1′-biphenyl]-3,3′-diyl)bis(5-(oxetan-3-yl)-4,5,6,7-tetrahydrothiazolo[5,4-c]pyridine-2-carboxamide)] | < 25 nM
2 | CNC(=O)CN1CCc2nc(C(=O)N3CCc4c(-c5cccc6c5CCN6C(=O)c5nc6c(s5)CN(CC(=O)O)CC6)cccc43)sc2C1 [Example 108, 2-(2-(1′-(5-(2-(methylamino)-2-oxoethyl)-4,5,6,7-tetrahydrothiazolo[5,4-c]pyridine-2-carbonyl)-[4,4′-biindoline]-1-carbonyl)-6,7-dihydrothiazolo[5,4-c]pyridin-5(4H)-yl)acetic acid] | < 25 nM
3 | Cc1c(NC(=O)c2nc3c(s2)CN(C)CC3)cccc1-c1cccc(NC(=O)c2nc3c(s2)CN(C)CC3)c1Cl [Example 49, N,N′-(2-chloro-2′-methylbiphenyl-3,3′-diyl)bis(5-methyl-4,5,6,7-tetrahydrothiazolo[5,4-c]pyridine-2-carboxamide)] | < 25 nM
4 | Cc1c(NC(=O)c2nnc(CN)s2)cccc1-c1cccc(NC(=O)c2nnc(CN)s2)c1C [Example 20, N,N′-(2,2′-dimethyl-[1,1′-biphenyl]-3,3′-diyl)bis(5-(aminomethyl)-1,3,4-thiadiazole-2-carboxamide)] | < 25 nM
5 | Cc1c(NC(=O)c2nc3c(s2)CNCC3)cc(Cl)cc1-c1cc(Cl)cc(NC(=O)c2nc3c(s2)CNCC3)c1C [Example 93, N,N′-(5,5′-dichloro-2,2′-dimethyl-[1,1′-biphenyl]-3,3′-diyl)bis(4,5,6,7-tetrahydrothiazolo[5,4-c]pyridine-2-carboxamide)] | < 25 nM
6 | O=C(Nc1cccc(-c2cccc(NC(=O)c3nc4c(s3)CN(CCO)CC4)c2Cl)c1Cl)c1nc2c(s1)CN(CCO)CC2 [Example 91, N,N′-(2,2′-dichloro-[1,1′-biphenyl]-3,3′-diyl)bis(5-(2-hydroxyethyl)-4,5,6,7-tetrahydrothiazolo[5,4-c]pyridine-2-carboxamide)] | < 25 nM
7 | Cc1c(NC(=O)c2ncc(CNCCO)s2)cccc1-c1cccc(NC(=O)c2ncc(CNCCO)s2)c1C [Example 7, N,N′-(2,2′-dimethyl-[1,1′-biphenyl]-3,3′-diyl)bis(5-(((2-hydroxyethyl)amino)methyl)thiazole-2-carboxamide)] | < 25 nM
8 | 2-((3′-(6,6-dimethyl-5,6,7,8-tetrahydro-614-1,6-naphthyridin-7-ylium-2-carboxamido)-2,2′-dimethyl-[1,1′-biphenyl]-3-yl)carbamoyl)-6,6-dimethyl-5,6,7,8-tetrahydro-1,6-naphthyridin-6-ium chloride [Example 171] | < 25 nM
9 | Cc1c(NC(=O)c2nc3c(n2C)CNCC3)cccc1-c1cccc(NC(=O)c2nc3c(n2C)CNCC3)c1C [Example 64, N,N′-(2,2′-dimethylbiphenyl-3,3′-diyl)bis(3-methyl-4,5,6,7-tetrahydro-3H-imidazo[4,5-c]pyridine-2-carboxamide)] | < 25 nM
10 | Cc1c(NC(=O)c2nc3c(s2)CNCC3)cccc1-c1cccc(NC(=O)c2nc3c(s2)CNCC3)c1Cl [Example 48, N,N′-(2-chloro-2′-methylbiphenyl-3,3′-diyl)bis(4,5,6,7-tetrahydrothiazolo[5,4-c]pyridine-2-carboxamide)] | < 25 nM
11 | Cc1c(NC(=O)c2nc3c(s2)CN(Cc2ccc(Cl)c(Cl)c2)CC3)cccc1-c1cccc(NC(=O)c2nc3c(s2)CN(Cc2ccc(Cl)c(Cl)c2)CC3)c1C [Example 75, N,N′-(2,2′-dimethyl-[1,1′-biphenyl]-3,3′-diyl)bis(5-(3,4-dichlorobenzyl)-4,5,6,7-tetrahydrothiazolo[5,4-c]pyridine-2-carboxamide)] | 100 to 200 nM

Further lines, results first:

Row | IC50 | Compound
12 | 25 to 100 nM | COC(=O)NC1(CN2CCc3nc(C(=O)N4CCc5c(-c6cccc7c6CCN7C(=O)c6nc7c(s6)CN(CC6(NC(=O)OC)CC6)CC7)cccc54)sc3C2)CC1 [Example 132, dimethyl (((([4,4′-biindoline]-1,1′-dicarbonyl)bis(6,7-dihydrothiazolo[5,4-c]pyridine-2,5(4H)-diyl))bis(methylene))bis(cyclopropane-1,1-diyl))dicarbamate]
13 | 100 to 200 nM | NCc1nc(C(=O)N2CCc3c(-c4cccc5c4CCN5C(=O)c4n[nH]c(CN)n4)cccc32)n[nH]1 [Example 137, (5-((12-azanyl)methyl)-1H-1,2,4-triazol-3-yl)(1′-(5-(aminomethyl)-1H-1,2,4-triazole-3-carbonyl)-[4,4′-biindolin]-1-yl)methanone]
14 | < 25 nM | Cc1c(Nc2nccc3cc(CNCC(=O)O)cnc23)cccc1-c1cccc2c1CCN2C(=O)C1=NC2CCN(CCC(=O)O)CC2S1 (centres unmarked) [Example 161, 3-(2-(4-(3-((3-(((carboxymethyl)amino)methyl)-1,7-naphthyridin-8-yl)amino)-2-methylphenyl)indoline-1-carbonyl)-3a,6,7,7a-tetrahydrothiazolo[5,4-c]pyridin-5(4H)-yl)propanoic acid]
15 | < 25 nM | Cc1c(Nc2nccc3cc(CNCC(=O)O)cnc23)cccc1-c1cccc(Nc2nccc3cc(CN4CC[C@H](N(C)C)C4)cnc23)c1C [Example 154, (S)-((8-((3′-((3-((3-(dimethylamino)pyrrolidin-1-yl)methyl)-1,7-naphthyridin-8-yl)amino)-2,2′-dimethyl-[1,1′-biphenyl]-3-yl)amino)-1,7-naphthyridin-3-yl)methyl)glycine]
16 | < 25 nM | Cc1nc(C(=O)N2CCc3c(-c4cccc(NC(=O)c5ncc(CN(C)CCO)s5)c4)cccc32)sc1CN(C)C [Example 114, N-(3-(1-(5-((dimethylamino)methyl)-4-methylthiazole-2-carbonyl)indolin-4-yl)phenyl)-5-(((2-hydroxyethyl)(methyl)amino)methyl)thiazole-2-carboxamide]
17 | < 25 nM | COC(=O)Cn1cc(CN2CCc3nc(C(=O)N4CCc5c(-c6cccc7c6CCN7C(=O)c6nc7c(s6)CN(Cc6cn(CC(=O)OC)nn6)CC7)cccc54)sc3C2)nn1 [Example 135, dimethyl 2,2′-(((([4,4′-biindoline]-1,1′-dicarbonyl)bis(6,7-dihydrothiazolo[5,4-c]pyridine-2,5(4H)-diyl))bis(methylene))bis(1H-1,2,3-triazole-4,1-diyl))diacetate]
18 | < 25 nM | Cc1c(Nc2nccc3cc(CN4CCOCC4)cnc23)cccc1-c1cccc(Nc2nccc3cc(CN4CCOCC4)cnc23)c1C [Example 151, 2,2′-dimethyl-N3,N3′-bis(3-(morpholinomethyl)-1,7-naphthyridin-8-yl)-[1,1′-biphenyl]-3,3′-diamine]
19 | < 25 nM | Cc1c(Nc2nccc3cc(CNCC(=O)O)cnc23)cccc1-c1cccc(Nc2nccc3cc(CNC[C@@H](O)CC(=O)O)cnc23)c1C [Example 141, (S)-4-(((8-((3′-((3-(((carboxymethyl)amino)methyl)-1,7-naphthyridin-8-yl)amino)-2,2′-dimethyl-[1,1′-biphenyl]-3-yl)amino)-1,7-naphthyridin-3-yl)methyl)amino)-3-hydroxybutanoic acid]
20 | < 25 nM | Cc1c(Nc2nccc3cc(CNCC(=O)O)cnc23)cccc1-c1cccc2c1CCN2C(=O)C1=NC2CCN(CC(=O)O)CC2S1 (centres unmarked) [Example 160, ((8-((3-(1-(5-(carboxymethyl)-3a,4,5,6,7,7a-hexahydrothiazolo[5,4-c]pyridine-2-carbonyl)indolin-4-yl)-2-methylphenyl)amino)-1,7-naphthyridin-3-yl)methyl)glycine]
21 | 25 to 100 nM | COC(=O)NCC1(N2CCc3nc(C(=O)N4CCc5c(-c6cccc7c6CCN7C(=O)c6nc7c(s6)CN(C6(CNC(=O)OC)CC6)CC7)cccc54)sc3C2)CC1 [Example 131, dimethyl (((([4,4′-biindoline]-1,1′-dicarbonyl)bis(6,7-dihydrothiazolo[5,4-c]pyridine-2,5(4H)-diyl))bis(cyclopropane-1,1-diyl))bis(methylene))dicarbamate]
22 | < 25 nM | Cc1c(Nc2nccc3cc(CNC(C)C(=O)O)cnc23)cccc1-c1cccc(Nc2nccc3cc(CNC(C)C(=O)O)cnc23)c1C (centres unmarked) [Example 140, 2,2′-(((((2,2′-dimethyl-[1,1′-biphenyl]-3,3′-diyl)bis(azanediyl))bis(1,7-naphthyridine-8,3-diyl))bis(methylene))bis(azanediyl))dipropionic acid]
23 | < 25 nM | CC(=O)N1CCc2nc(C(=O)Nc3cccc(-c4cccc(NC(=O)c5ccc6c(n5)CCNC6)c4C)c3C)ccc2C1 [Example 182, 6-acetyl-N-(2,2′-dimethyl-3′-(5,6,7,8-tetrahydro-1,6-naphthyridine-2-carboxamido)-[1,1′-biphenyl]-3-yl)-5,6,7,8-tetrahydro-1,6-naphthyridine-2-carboxamide]
